This data set in a line: PAMPA membrane permeability assay. Format: in vitro ADME. To be noted: pH 7.4 buffer, incubated for 4 hours, passive diffusion. The procedure: The PAMPA assay (pION, Inc., Woburn Mass.) was used to determine the ability of compounds of the invention to cross an artificial lipid membrane by passive diffusion. Test compounds were dissolved in DMSO (10 mM) and diluted 200-fold in buffer (pION Inc., pH 7.4) to provide 50 uM stock solutions. Buffer (150 μL) was added to a UV blank plate and stock solutions (150 μL) were transferred to a UV reference plate. The blank and reference spectrum were read using a spectrophotometer. Stock solutions (200 μL) were added to the donor plate of the PAMPA sandwich plate and an accept plate painted with GIT lipid (pION Inc, 5 μL) was placed on top. Buffer (200 μL) was added to the acceptor plate and the PAMPA sandwich plate was incubated for 4 hours. Aliquots (150 μL) from the acceptor plate were added to a UV plate and read as acceptor spectrum. Aliquots (150 μL) of the donor solutions were added to a UV analysis plate and read as donor spectrum. The permeability coefficient of test compounds was calculated using PAMPA Explorer™ software (version 3.5.0.4) based on the AUC of the reference plate, the donor plate, and the acceptor plate.
On the technique in general: The PAMPA barrier holds no transporters, so it reflects passive diffusion.

SMILES strings stand for the structures.

For orientation: Papp means a coefficient for how fast a substance crosses the barrier. A high value points to ready permeation. Turning to `CCC(C(=O)Nc1c(C)cccc1C)[N+]1(Cc2ccccc2)CCCCCC1.[Br-]` (centres unmarked) [5A′, 1-benzyl-1-(1-((2,6-dimethylphenyl)amino)-1-oxobutan-2-yl) azepan-1-ium bromide], the Papp at 4 h, 50 uM was below 1 ×10⁻⁶ cm/s.

With `Cc1cccc(C)c1NC(=O)C[N+]1(Cc2ccccc2)CCCC1.[Br-]` [2A′, 1-benzyl-1-(2-((2,6-dimethylphenyl)amino)-2-oxoethyl) pyrrolidin-1-ium bromide], the Papp at 4 h, 50 uM was below 1 ×10⁻⁶ cm/s.

Consider `Cc1cccc(C)c1NC(=O)C[N+]1(Cc2ccccc2)CCCCCCC1.[Br-]` [6A′, 1-benzyl-1-(2-((2,6-dimethylphenyl)amino)-2-oxoethyl) azocan-1-ium bromide], for which the Papp at 4 h, 50 uM was below 1 ×10⁻⁶ cm/s.

Molecule `Cc1cccc(C)c1NC(=O)C[N+]1(Cc2ccccc2)CCCCCC1.[Br-]` [4A′, 1-benzyl-1-(2-((2,6-dimethylphenyl)amino)-2-oxoethyl) azepan-1-ium bromide] had an apparent permeability coefficient (Papp) at 4 h, 50 uM below 1 ×10⁻⁶ cm/s.

As for `CCC(C(=O)Nc1c(C)cccc1C)[N+]1(Cc2ccccc2)CCCCC1.[Br-]` (centres unmarked) [3A′, 1-benzyl-1-(1-((2,6-dimethylphenyl)amino)-1-oxobutan-2-yl)piperidin-1-ium bromide], the Papp at 4 h, 50 uM was below 1 ×10⁻⁶ cm/s.

These data come from patent publication US10780083B1, “Charged ion channel blockers and methods for use” (Nocion Therapeutics, Inc., priority 2019, dated 2020).
